Values joined by “and” are separate entries in the source; they are usually repeats but may differ in a detail not shown here. Identical values can stand only once.
Experiments:
MCF7 cells = assay: IncuCyte confluency growth, MCF7; format: cell-based, human
Method: (§1) To determine the IC50 of drug treatments on growth, cells were seeded in 96-well culture plates. Two days after seeding, the cells were treated with increasing concentrations of drugs and incubated for 4 days. Cell number was determined using the SRB assay (Skehan et al, [1990]), and IC50 values were calculated using non-linear regression curve fitting in GraphPad Prism v10. For all other growth experiments, cells were seeded into 96-well plates, and appropriate drugs were added 2 days after seeding. Cells were then incubated in an IncuCyte Zoom live-cell imager, with cell confluency measured every 6 h. Cell doubling times were determined by non-linear curve fitting (exponential growth equation) in GraphPad Prism v10.

[1] = test system: MCF7-CDK4^WT/D99N (CL4) cells; assay: IncuCyte confluency growth, heterozygous CDK4 D99N clone CL4; format: cell-based, human
Method: as §1

CC(=O)c1c(C)c2cnc(Nc3ccc(N4CCNCC4)cn3)nc2n(C2CCCC2)c1=O [Palbociclib]
% Conluency (MCF7 cells; MCF7, 50nM Palbociclib, 48 Hours): 21.09% and 17.14% and 31.73% | % Conluency (MCF7 cells; MCF7, 50nM Palbociclib, 60 Hours): 26.85% and 21.06% and 38.57% | % Conluency (MCF7 cells; MCF7, 50nM Palbociclib, 72 Hours): 33.08% and 25.69% and 49.56% | % Conluency (MCF7 cells; MCF7, 50nM Palbociclib, 84 Hours): 42.76% and 32.56% and 62.06% | % Conluency (MCF7 cells; MCF7, 50nM Palbociclib, 96 Hours): 53.46% and 40.59% and 75.59% | % Conluency (MCF7 cells; MCF7, 50nM Palbociclib, 120 Hours): 76.28% and 61.62% and 89.48% | % Conluency (MCF7 cells; MCF7, 50nM Palbociclib, 132 Hours): 87.22% and 71.34% and 95.67% | % Conluency (MCF7 cells; MCF7, 50nM Palbociclib, 144 Hours): 95.25% and 77.28% and 98.12% | % Conluency (MCF7 cells; MCF7, 100nM Palbociclib, 48 Hours): 20.67% and 15.77% and 27.22% | % Conluency (MCF7 cells; MCF7, 100nM Palbociclib, 60 Hours): 25.56% and 18.66% and 32.25% | % Conluency (MCF7 cells; MCF7, 100nM Palbociclib, 72 Hours): 32.06% and 22.38% and 39.17% | % Conluency (MCF7 cells; MCF7, 100nM Palbociclib, 84 Hours): 40.13% and 28.06% and 49.01% | % Conluency (MCF7 cells; MCF7, 100nM Palbociclib, 96 Hours): 50.09% and 33.82% and 60.83% | % Conluency (MCF7 cells; MCF7, 100nM Palbociclib, 120 Hours): 70.64% and 49.63% and 77.85% | % Conluency (MCF7 cells; MCF7, 100nM Palbociclib, 132 Hours): 77.85% and 58.56% and 85.38% | % Conluency (MCF7 cells; MCF7, 100nM Palbociclib, 144 Hours): 87.15% | % Conluency (MCF7 cells; MCF7, 500nM Palbociclib, 48 Hours): 17.33% and 13.43% and 25.36% | % Conluency (MCF7 cells; MCF7, 500nM Palbociclib, 60 Hours): 19.30% and 15.00% and 28.50% | % Conluency (MCF7 cells; MCF7, 500nM Palbociclib, 72 Hours): 22.35% and 16.89% and 33.09% | % Conluency (MCF7 cells; MCF7, 500nM Palbociclib, 120 Hours): 35.55% and 26.80% and 51.35% | % Conluency (MCF7 cells; MCF7, 500nM Palbociclib, 132 Hours): 36.87% and 29.33% and 55.68% | % Conluency (MCF7 cells; MCF7, 500nM Palbociclib, 144 Hours): 41.22% and 32.10% and 58.75% | % Conluency (MCF7 cells; MCF7, 1000nM Palbociclib, 48 Hours): 16.59% and 13.44% and 21.86% | % Conluency (MCF7 cells; MCF7, 1000nM Palbociclib, 60 Hours): 18.56% and 14.52% and 24.10% | % Conluency (MCF7 cells; MCF7, 1000nM Palbociclib, 72 Hours): 20.73% and 16.23% and 26.86% | % Conluency (MCF7 cells; MCF7, 1000nM Palbociclib, 84 Hours): 23.01% and 18.11% and 30.06% | % Conluency (MCF7 cells; MCF7, 1000nM Palbociclib, 96 Hours): 25.25% and 20.25% and 34.64% | % Conluency (MCF7 cells; MCF7, 1000nM Palbociclib, 120 Hours): 30.07% and 24.29% and 38.56% | % Conluency (MCF7 cells; MCF7, 1000nM Palbociclib, 132 Hours): 30.94% and 26.42% and 40.12% | % Conluency (MCF7 cells; MCF7, 1000nM Palbociclib, 144 Hours): 33.62% and 26.11% and 42.54% | Doubling time (MCF7 cells; MCF7, 1 µM Palbociclib): 138.9 (95% CI = 96.8–238.0) h | Increase of doubling time vs vehicle (MCF7 cells; MCF7, 1 µM Palbociclib): fivefold | Confluency (MCF7 cells; MCF7, 1 µM Palbociclib, at 250 h): 50% | Growth inhibition (MCF7 cells; MCF7, IncuCyte): growth inhibited by Palbociclib in a dose-dependent manner | % Confluency ([1]; MCF7 CDK4 WT/D99N CL4, 50nM Palbociclib, 0 Hours): 5.85% and 7.14% and 7.68% | % Confluency ([1]; MCF7 CDK4 WT/D99N CL4, 50nM Palbociclib, 12 Hours): 8.21% and 10.76% and 12.27% | % Confluency ([1]; MCF7 CDK4 WT/D99N CL4, 50nM Palbociclib, 24 Hours): 10.88% and 13.85% and 15.74% | % Confluency ([1]; MCF7 CDK4 WT/D99N CL4, 50nM Palbociclib, 36 Hours): 13.80% and 16.38% and 19.05% | % Confluency ([1]; MCF7 CDK4 WT/D99N CL4, 50nM Palbociclib, 48 Hours): 17.70% and 21.33% and 24.63% | % Confluency ([1]; MCF7 CDK4 WT/D99N CL4, 50nM Palbociclib, 60 Hours): 22.48% and 27.81% and 30.42% | % Confluency ([1]; MCF7 CDK4 WT/D99N CL4, 50nM Palbociclib, 72 Hours): 27.76% and 35.03% and 37.64% | % Confluency ([1]; MCF7 CDK4 WT/D99N CL4, 50nM Palbociclib, 84 Hours): 35.06% and 44.68% and 46.96% | % Confluency ([1]; MCF7 CDK4 WT/D99N CL4, 50nM Palbociclib, 96 Hours): 44.30% and 55.86% and 62.70% | % Confluency ([1]; MCF7 CDK4 WT/D99N CL4, 100nM Palbociclib, 0 Hours): 5.03% and 8.02% and 6.57% | % Confluency ([1]; MCF7 CDK4 WT/D99N CL4, 100nM Palbociclib, 12 Hours): 7.75% and 11.69% and 10.17% | % Confluency ([1]; MCF7 CDK4 WT/D99N CL4, 100nM Palbociclib, 24 Hours): 10.36% and 14.93% and 13.32%
